# Experimental data from ChEMBL document CHEMBL1201862, “PubChem BioAssay data set” (2004).
#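 Following 48 hours of exposure in 96-well plates, responses at five concentrations were used to interpolate endpoints linearly. At the GI50, growth is halved.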 Calls of active or inactive are those of the source. Rule as the data show it: active = GI50 up to about 1.1 µM and inactive = higher.
# What was measured:
# Test in all cases: growth of human tumour cells (NCI), 48 h
# A498 = tested on: A498
# UACC-62 = tested on: UACC-62
# CCRF-CEM = tested on: CCRF-CEM
# TK-10 = tested on: TK-10
# SK-MEL-2 = tested on: SK-MEL-2
# PC-3 = tested on: PC-3
# NCI/ADR-RES = tested on: NCI/ADR-RES
# NCI-H460 = tested on: NCI-H460
# DU-145 = tested on: DU-145
# HCT-15 = tested on: HCT-15
# SR = tested on: SR
# IGROV-1 = tested on: IGROV-1
# CAKI-1 = tested on: CAKI-1
# SK-MEL-5 = tested on: SK-MEL-5
# NCI-H23 = tested on: NCI-H23
# HOP-92 = tested on: HOP-92
# NCI-H226 = tested on: NCI-H226
# U-251 = tested on: U-251
# SF-268 = tested on: SF-268
# MCF7 = tested on: MCF7
# UO-31 = tested on: UO-31
# SK-MEL-28 = tested on: SK-MEL-28
# M14 = tested on: M14
# NCI-H522 = tested on: NCI-H522
# SN12C = tested on: SN12C
# K562 = tested on: K562
# HL-60 = tested on: HL-60
# SF-295 = tested on: SF-295
# OVCAR-8 = tested on: OVCAR-8
# UACC-257 = tested on: UACC-257
# EKVX = tested on: EKVX
# RPMI-8226 = tested on: RPMI-8226
# MDA-N = tested on: MDA-N
# SW-620 = tested on: SW-620
# OVCAR-3 = tested on: OVCAR-3
# LOX IMVI = tested on: LOX IMVI
# HCT-116 = tested on: HCT-116
# 786-0 = tested on: 786-0
# KM12 = tested on: KM12
# HT-29 = tested on: HT-29
# ACHN = tested on: ACHN
# MOLT-4 = tested on: MOLT-4
# Hs-578T = tested on: Hs-578T
# A549 = tested on: A549
# MDA-MB-231 = tested on: MDA-MB-231
# SF-539 = tested on: SF-539
# COLO 205 = tested on: COLO 205
# OVCAR-5 = tested on: OVCAR-5
# SNB-75 = tested on: SNB-75
# OVCAR-4 = tested on: OVCAR-4
# MDA-MB-435 = tested on: MDA-MB-435
# SNB-19 = tested on: SNB-19
# RXF 393 = tested on: RXF 393
# SK-OV-3 = tested on: SK-OV-3
# HOP-62 = tested on: HOP-62
smiles,measurement,setting,value
CC(=O)OC1[C@H](n2ccnc2)C[C@H]2[C@@H]3CC=C4CC(N5CCCC5)CC[C@]4(C)[C@H]3CC[C@]12C (stereo partly drawn),GI50,A498,32.7 µM (inactive)
same,GI50,UACC-62,27.5 µM (inactive)
same,GI50,CCRF-CEM,25.6 µM (inactive)
same,GI50,TK-10,88.1 µM (inactive)
same,GI50,SK-MEL-2,20.3 µM (inactive)
same,GI50,PC-3,34.4 µM (inactive)
same,GI50,NCI/ADR-RES,> 100 µM (inactive)
same,GI50,NCI-H460,6.71 µM (inactive)
same,GI50,DU-145,> 100 µM (inactive)
same,GI50,HCT-15,21.3 µM
same,GI50,SR,12 µM (inactive)
same,GI50,IGROV-1,43.7 µM (inactive)
same,GI50,CAKI-1,43.5 µM (inactive)
same,GI50,SK-MEL-5,33 µM (inactive)
same,GI50,NCI-H23,60.3 µM (inactive)
same,GI50,HOP-92,69.5 µM (inactive)
same,GI50,NCI-H226,40.1 µM (inactive)
same,GI50,U-251,55.3 µM (inactive)
same,GI50,SF-268,34.8 µM (inactive)
same,GI50,MCF7,33.9 µM (inactive)
same,GI50,UO-31,49.5 µM (inactive)
same,GI50,SK-MEL-28,21.2 µM (inactive)
same,GI50,M14,21.8 µM (inactive)
same,GI50,NCI-H522,24.1 µM (inactive)
same,GI50,SN12C,51.9 µM (inactive)
same,GI50,K562,17.1 µM (inactive)
same,GI50,HL-60,12.1 µM (inactive)
same,GI50,SF-295,20.5 µM (inactive)
same,GI50,OVCAR-8,62.5 µM (inactive)
same,GI50,UACC-257,18.8 µM (inactive)
same,GI50,EKVX,70.1 µM (inactive)
same,GI50,RPMI-8226,23.2 µM (inactive)
same,GI50,MDA-N,28.1 µM (inactive)
same,GI50,SW-620,54.1 µM (inactive)
same,GI50,OVCAR-3,54.6 µM (inactive)
same,GI50,LOX IMVI,10.1 µM (inactive)
same,GI50,HCT-116,21 µM (inactive)
same,GI50,786-0,22.5 µM (inactive)
same,GI50,KM12,58.3 µM (inactive)
same,GI50,HT-29,5.35 µM (inactive)
same,GI50,ACHN,52.2 µM (inactive)
same,GI50,MOLT-4,17.3 µM (inactive)
same,GI50,Hs-578T,> 100 µM (inactive)
same,GI50,A549,41.4 µM (inactive)
same,GI50,MDA-MB-231,66.2 µM (inactive)
same,GI50,SF-539,14.1 µM (inactive)
same,GI50,COLO 205,23.7 µM (inactive)
same,GI50,OVCAR-5,> 100 µM (inactive)
same,GI50,SNB-75,> 100 µM (inactive)
same,GI50,OVCAR-4,87.3 µM (inactive)
same,GI50,MDA-MB-435,23.8 µM (inactive)
same,GI50,SNB-19,> 100 µM (inactive)
same,GI50,RXF 393,11.7 µM (inactive)
COc1cc(/C=c2\sc3n(c2=O)C(c2ccc(Cl)cc2)C2=C(CCCC2C)N=3)cc(OC)c1OC (stereo not drawn),GI50,A498,> 100 µM (inactive)
same,GI50,UACC-62,> 100 µM (inactive)
same,GI50,CCRF-CEM,> 100 µM (inactive)
same,GI50,TK-10,> 100 µM (inactive)
same,GI50,SK-MEL-2,> 100 µM (inactive)
same,GI50,PC-3,> 100 µM (inactive)
same,GI50,DU-145,> 100 µM (inactive)
same,GI50,SK-OV-3,> 100 µM (inactive)
same,GI50,HCT-15,> 100 µM
same,GI50,SR,> 100 µM (inactive)
same,GI50,IGROV-1,> 100 µM (inactive)
same,GI50,CAKI-1,> 100 µM (inactive)
same,GI50,SK-MEL-5,83 µM (inactive)
same,GI50,HOP-92,> 100 µM (inactive)
same,GI50,U-251,> 100 µM (inactive)
same,GI50,SF-268,> 100 µM (inactive)
same,GI50,MCF7,> 100 µM (inactive)
same,GI50,UO-31,> 100 µM (inactive)
same,GI50,SK-MEL-28,> 100 µM (inactive)
same,GI50,M14,> 100 µM (inactive)
same,GI50,SN12C,> 100 µM (inactive)
same,GI50,K562,> 100 µM (inactive)
same,GI50,HL-60,> 100 µM (inactive)
same,GI50,OVCAR-8,> 100 µM (inactive)
same,GI50,UACC-257,> 100 µM (inactive)
same,GI50,EKVX,> 100 µM (inactive)
same,GI50,RPMI-8226,> 100 µM (inactive)
same,GI50,MDA-N,> 100 µM (inactive)
same,GI50,SW-620,> 100 µM (inactive)
same,GI50,LOX IMVI,> 100 µM (inactive)
same,GI50,HCT-116,> 100 µM (inactive)
same,GI50,786-0,> 100 µM (inactive)
same,GI50,KM12,> 100 µM (inactive)
same,GI50,HT-29,> 100 µM (inactive)
same,GI50,ACHN,> 100 µM (inactive)
same,GI50,MOLT-4,> 100 µM (inactive)
same,GI50,Hs-578T,> 100 µM (inactive)
same,GI50,A549,> 100 µM (inactive)
same,GI50,MDA-MB-231,25.9 µM (inactive)
same,GI50,OVCAR-5,> 100 µM (inactive)
same,GI50,SNB-75,> 100 µM (inactive)
same,GI50,MDA-MB-435,> 100 µM (inactive)
same,GI50,SNB-19,> 100 µM (inactive)
same,GI50,RXF 393,> 100 µM (inactive)
same,GI50,HOP-62,> 100 µM (inactive)
